Reference: patent publication EP0652004B1, “Methods for treating resistant neoplasms” (ELI LILLY AND COMPANY, priority 1993, dated 1995)
In brackets after ≈: the same amount, converted by molar mass. Read-outs that look alike come from different tables or passages of the source.

What was measured:
[1] = test system: HL60/ADR; assay: reversal of drug resistance to Adriamycin, in vitro cytotoxicity assay (3H-leucine incorporation); format: cell-based, human; conditions: change in IC50 of Adriamycin; test compound at maximum noncytotoxic concentration (Conc. µM: 12, 6, 3, 4)
Description: (§1) The cells used to analyze the reversal of drug resistance are the human leukemia cell lines HL60/s, HL60/Vinc, and HL60/ADR. HL60/s cells are not selected for drug resistance and are therefore sensitive to drug treatment (McGrath, et al., "Mechanisms of Multidrug Resistance in HL60 Cells. Analysis of Resistance Associated Membrane Proteins and Levels of MDR Gene Expression, Biochemical Pharmacology, 38: 3611-3619, 1989.). HL60/Vinc tumor cells are selected for resistance to vincristine and express a high level of the multidrug resistance-related protein, P-glycoProtein. Id. HL60/ADR cells are selected for resistance to Adriamycin but contain no detectable levels of P-glycoProtein. Id.
(§2) The in vitro cytotoxicity assays are performed by suspending the target cells into Minimum Essential Eagle's Medium (MEM) containing 25% of the normal leucine concentration and 10% dialyzed fetal calf serum. 2x10^4 cells are seeded into each well of 96 well microtiter plates and are incubated overnight in 5% CO2 at 37°C. The agents to be tested for reversal activity are serially diluted (100 µM, 50 µM, ..., 0.2 µM) in media and added to the cells. 48 hours after adding the reversal agents to the target cells, 4 µCi of ^3H-leucine are added to each well and are incubated for an additional 16 hours at 37°C. The cells are harvested and the amount of ^3H-leucine incorporation is determined. The concentration of reversal agent required for 50% inhibition of ^3H-leucine incorporation (IC50) is calculated. Subsequent studies using reversal agents in the presence of cytotoxic drug (i.e., Adriamycin) utilize maximal concentrations of reversal agents that are not cytotoxic by themselves. The reversal of drug resistance by the various test compounds is accomplished by adding the maximum noncytotoxic concentration of the test compounds to log dilutions of Adriamycin (10, 1, 0.1, ... 0.001 µg/ml) and calculating the change in IC50 observed for Adriamycin against the HL60/s, HL60/Vinc, and HL60/ADR cell lines in the above described in vitro cytotoxicity assay.

[2] = test system: HL60/VINC; assay: as above; format: cell-based, human; conditions: change in IC50 of Adriamycin; test compound at maximum noncytotoxic concentration (Conc. µM column: 12, 4)
Description: as §1, §2

[3] = test system: HL60/S cells; assay: cytotoxicity of oncolytic agents against HL60/S cells; format: cell-based; conditions: Homo sapiens, HL-60; HL60/S cells (drug sensitive, no P-glycoProtein)
Procedure: as §2

[4] = test system: HL60/Adr cells; assay: cytotoxicity of oncolytic agents against HL60/Adr cells; format: cell-based; conditions: Homo sapiens
Procedure: as §2

CC/C(=C(\c1ccccc1)c1ccc(OCCN(C)C)cc1)c1ccccc1 [Tamoxifen]
Reversal Factor HL60/ADR [1]: 1.4
Reversal Factor HL60/VINC [2]: 4.6

C[C@]12CC[C@@H]3c4ccc(O)cc4CC[C@H]3[C@@H]1CC[C@@H]2O [17∝ Estradiol]
Reversal Factor HL60/ADR [1]: 1

COc1cc([C@@H]2c3cc4c(cc3[C@@H](O[C@@H]3O[C@@H]5CO[C@@H](C)O[C@H]5[C@H](O)[C@H]3O)[C@H]3COC(=O)[C@H]23)OCO4)cc(OC)c1O [Etoposide]
IC50 [3]: 0.39 µg/mL (≈ 0.663 µM)
IC50 ([4]; HL60/Adr cells (resistant to doxorubicin, express P190), read-out: IC50): > 10 µg/mL

COc1cccc2c1C(=O)c1c(O)c3c(c(O)c1C2=O)C[C@@](O)(C(=O)CO)C[C@@H]3O[C@H]1C[C@H](N)[C@H](O)[C@H](C)O1 [Adriamycin, Doxorubicin]
IC50 [3]: 0.011 µg/mL (≈ 0.0202 µM)
IC50 ([4]; HL60/ADR): 2.2 µg/mL (≈ 4.05 µM)

Cl.O=C(c1ccc(OCCN2CCCCC2)cc1)c1c(-c2ccc(O)cc2)sc2cc(O)ccc12 [Raloxifene HCL, raloxifene]
Reversal Factor HL60/ADR [1]: 7.1
